The values that follow come from patent publication US11279683B2, “Thiophene derivatives as antiviral agents” (ENYO PHARMA, priority 2016, dated 2022).

The subject of this test is H1N1 (influenza A/New Caledonia/20/99). As to the kind of experiment: microbe, parasite or virus in culture. The following applies: Influenza A virus, H1N1, A549, 48 h. It is filed as cell-based.
For the molecule `CC(C)c1ccc(NC(=O)c2c(NC(=O)C3CCCCC3C(=O)O)sc3c2CCC3)cc1` (centres unmarked) [Compound 25, 2-[[3-[(4-Isopropylphenyl)carbamoyl]-5,6-dihydro-4H-cyclopenta[b]thiophen-2-yl]carbamoyl]cyclohexanecarboxylic acid], the IC50 was determined as 4.68 µM. Next, `O=C(NC1CCc2ccccc21)c1c(NC(=O)C2CCCCC2C(=O)O)sc2c1CCC2` (centres unmarked) [Compound 23, 2-[[3-(Indan-1-ylcarbamoyl)-5,6-dihydro-4H-cyclopenta[b]thiophen-2-yl]carbamoyl]cyclohexanecarboxylic acid]: 6.28 µM. For `CCCCCNC(=O)c1c(NC(=O)C2CCCCC2C(=O)O)sc2c1CCC2` (centres unmarked) [Compound 22, 2-[[3-(pentylcarbamoyl)-5,6-dihydro-4H-cyclopenta[b]thiophen-2-yl]carbamoyl]cyclohexanecarboxylic acid] the value was 20.3 µM. For `O=C(Nc1cccc(C(F)(F)F)c1)c1c(NC(=O)C2CCCCC2C(=O)O)sc2c1CCC2` (centres unmarked) [Compound 77, 2-[[3-[[3-(Trifluoromethyl)phenyl]carbamoyl]-5,6-dihydro-4H-cyclopenta[b]thiophen-2-yl]carbamoyl]cyclohexanecarboxylic acid] the value was 6.78 µM; for `NS(=O)(=O)N1CCCCC1C(=O)Nc1sc2c(c1C(=O)Nc1ccc(Cl)cc1)CCC2` (centres unmarked) [Compound 80, N-[3-[(4-chlorophenyl)carbamoyl]-5,6-dihydro-4H-cyclopenta[b]thiophen-2-yl]-1-sulfamoyl-piperidine-2-carboxamide], 2.25 µM; for `CC(=O)N1CCC1C(=O)Nc1sc2c(c1C(=O)Nc1ccc(Cl)cc1)CCC2` (centres unmarked) [Compound 84, 1-acetyl-N-[3-[(4-chlorophenyl)carbamoyl]-5,6-dihydro-4H-cyclopenta[b]thiophen-2-yl]azetidine-2-carboxamide], 29.6 µM.

In turn, `O=C(Nc1ccc(Cl)cc1)c1c(NC(=O)C2CCCCC2C(=O)O)sc2c1CSC2` (centres unmarked) [Compound 38, 2-[[3-[(4-Chlorophenyl)carbamoyl]-4,6-dihydrothieno[3,4-b]thiophen-2-yl]carbamoyl]cyclohexanecarboxylic acid] returned an IC50 of 6.44 µM.

Turning to `O=C(Nc1ccc(-c2ccccc2)cc1)c1c(NC(=O)C2CCCCC2C(=O)O)sc2c1CCC2` (centres unmarked) [Compound 10, 2-[[3-[(4-Phenylphenyl)carbamoyl]-5,6-dihydro-4H-cyclopenta[b]thiophen-2-yl]carbamoyl]cyclohexanecarboxylic acid], the IC50 worked out at 2.38 µM. In turn, `O=C(O)C1CCCCC1C(=O)Nc1sc2c(c1C(=O)N1CCN(c3ccc(Cl)cc3)CC1)CCC2` (centres unmarked) [Compound 36, 2-[[3-[4-(4-chlorophenyl)piperazine-1-carbonyl]-5,6-dihydro-4H-cyclopenta[b]thiophen-2-yl]carbamoyl]cyclohexanecarboxylic acid] had a concentration for half-maximal inhibition (IC50) of 21 µM. `O=C(Nc1ccc(Cl)cc1)c1c(NC(=O)[C@H]2CCCC[C@H]2C(=O)NO)sc2c1CCC2` (stereo in doubt) [Compound 90, N-(4-chlorophenyl)-2-[[2-(hydroxycarbamoyl)cyclohexanecarbonyl]amino]-5,6-dihydro-4H-cyclopenta[b]thiophene-3-carboxamide] had an IC50 of 9 µM. Next, `O=C(Nc1ccc(Cl)cc1)c1c(NC(=O)C2COC2)sc2c1CCC2` [Compound 94, N-[3-[(4-chlorophenyl)carbamoyl]-5,6-dihydro-4H-cyclopenta[b]thiophen-2-yl]oxetane-3-carboxamide]: 12.9 µM. Next, `CO[C@H]1CC[C@H](NC(=O)c2c(NC(=O)C3CCCCC3C(=O)O)sc3c2CCC3)CC1` (stereo partly drawn) [Compound 8, 2-[[3-[(Trans-4-methoxycyclohexyl)carbamoyl]-5,6-dihydro-4H-cyclopenta[b]thiophen-2-yl]carbamoyl]cyclohexanecarboxylic acid]: 27.4 µM. Turning to `O=C(NCC1CCCCC1)c1c(NC(=O)C2CCCCC2C(=O)O)sc2c1CCC2` (centres unmarked) [Compound 24, 2-[[3-(Cyclohexylmethylcarbamoyl)-5,6-dihydro-4H-cyclopenta[b]thiophen-2-yl]carbamoyl]cyclohexanecarboxylic acid], the IC50 stood at 12.3 µM. For `COc1ccc(NC(=O)c2c(NC(=O)C3CCCCC3C(=O)O)sc3c2CCC3)cc1` (centres unmarked) [Compound 76, 2-[[3-[(4-Methoxyphenyl)carbamoyl]-5,6-dihydro-4H-cyclopenta[b]thiophen-2-yl]carbamoyl]cyclohexanecarboxylic acid] the value was 14.1 µM; for `O=C(NC1CCC(F)(F)CC1)c1c(NC(=O)C2CCCCC2C(=O)O)sc2c1CCC2` (centres unmarked) [Compound 18, 2-[[3-[(4,4-Difluorocyclohexyl)carbamoyl]-5,6-dihydro-4H-cyclopenta[b]thiophen-2-yl]carbamoyl]cyclohexanecarboxylic acid], 33 µM; for `CCc1c(C)sc(NC(=O)C2CCCCC2C(=O)O)c1C(=O)Nc1ccc(Cl)cc1` (centres unmarked) [Compound 59, 2-[[3-[(4-Chlorophenyl)carbamoyl]-4-ethyl-5-methyl-2-thienyl]carbamoyl]cyclohexanecarboxylic acid], 53.5 µM. For the molecule `Cc1ccc(NC(=O)c2c(NC(=O)C3CC=CCC3C(=O)O)sc3c2CCCC3)cc1` (centres unmarked) [Compound 60, 6-[[3-(p-Tolylcarbamoyl)-4,5,6,7-tetrahydrobenzothiophen-2-yl]carbamoyl]cyclohex-3-ene-1-carboxylic acid], the IC50 is 54.8 µM. `COc1cccc(NC(=O)c2c(NC(=O)C3CCCCC3C(=O)O)sc3c2CCC3)c1` (centres unmarked) [Compound 64, 2-[[3-[(3-Methoxyphenyl)carbamoyl]-5,6-dihydro-4H-cyclopenta[b]thiophen-2-yl]carbamoyl]cyclohexanecarboxylic acid] yielded an IC50 of 14.1 µM. `O=C(Nc1ccc(Cl)cc1)c1c(NC(=O)C2CCCCC2C(=O)O)sc2c1CCOC2` (centres unmarked) [Compound 37, 2-[[3-[(4-Chlorophenyl)carbamoyl]-5,7-dihydro-4H-thieno[2,3-c]pyran-2-yl]carbamoyl]cyclohexanecarboxylic acid] yielded an IC50 of 43.4 µM. Next, `O=C(Nc1ccc(Cl)cc1)c1c(NC(=O)C2CCCCC2CO)sc2c1CCC2` (centres unmarked) [Compound 56, N-(4-Chlorophenyl)-2-[[2-(hydroxymethyl)cyclohexanecarbonyl]amino]-5,6-dihydro-4H-cyclopenta[b]thiophene-3-carboxamide]: 24 µM; `O=C(Nc1cccc(Cl)c1)c1c(NC(=O)C2CCCCC2C(=O)O)sc2c1CCC2` (centres unmarked) [Compound 17, 2-[[3-[(3-Chlorophenyl)carbamoyl]-5,6-dihydro-4H-cyclopenta[b]thiophen-2-yl]carbamoyl]cyclohexanecarboxylic acid]: 4.88 µM; `O=C(Nc1ccc2c(c1)OCO2)c1c(NC(=O)C2CCCCC2C(=O)O)sc2c1CCC2` (centres unmarked) [Compound 3, 2-[[3-(1,3-Benzodioxol-5-ylcarbamoyl)-5,6-dihydro-4H-cyclopenta[b]thiophen-2-yl]carbamoyl]cyclohexanecarboxylic acid]: 10.3 µM. Turning to `O=C(Nc1ncc(Cl)s1)c1c(NC(=O)C2CCCCC2C(=O)O)sc2c1CCC2` (centres unmarked) [Compound 29, 2-[[3-[(5-Chlorothiazol-2-yl)carbamoyl]-5,6-dihydro-4H-cyclopenta[b]thiophen-2-yl]carbamoyl]cyclohexanecarboxylic acid], half-maximal inhibition (IC50) required 6.78 µM. Take `Cc1cncc(NC(=O)c2c(NC(=O)C3CCCCC3C(=O)O)sc3c2CCC3)c1` (centres unmarked) [Compound 33, 2-[[3-[(5-Methyl-3-pyridyl)carbamoyl]-5,6-dihydro-4H-cyclopenta[b]thiophen-2-yl]carbamoyl]cyclohexanecarboxylic acid]: half-maximal inhibition (IC50) was put at 27.4 µM. As to `O=C(O)CC1(CC(=O)Nc2sc3c(c2C(=O)Nc2ccc(Cl)cc2)CCC3)CCCC1` [Compound 45, 2-[1-[2-[[3-[(4-Chlorophenyl)carbamoyl]-5,6-dihydro-4H-cyclopenta[b]thiophen-2-yl]amino]-2-oxo-ethyl]cyclopentyl]acetic acid], the IC50 turned out to be 8.1 µM.

In turn, `CS(=O)(=O)N1CCOC(C(=O)Nc2sc3c(c2C(=O)Nc2ccc(Cl)cc2)CCC3)C1` (centres unmarked) [Compound 86, N-[3-[(4-chlorophenyl)carbamoyl]-5,6-dihydro-4H-cyclopenta[b]thiophen-2-yl]-4-methylsulfonyl-morpholine-2-carboxamide] yielded a concentration for half-maximal inhibition (IC50) of 6.3 µM. Next, `O=C(NCc1ccccc1)c1c(NC(=O)C2CCCCC2C(=O)O)sc2c1CCC2` (centres unmarked) [Compound 63, 2-[[3-(Benzylcarbamoyl)-5,6-dihydro-4H-cyclopenta[b]thiophen-2-yl]carbamoyl]cyclohexanecarboxylic acid]: 21.4 µM. The molecule `O=C(Nc1ccc(Cl)cc1)c1c(NC(=O)C2C3CCC(O3)C2C(=O)O)sc2c1CCC2` (centres unmarked) [Compound 51, 2-[[3-[(4-Chlorophenyl)carbamoyl]-5,6-dihydro-4H-cyclopenta[b]thiophen-2-yl]carbamoyl]-7-oxabicyclo[2.2.1]heptane-3-carboxylic acid] returned an IC50 of 29.7 µM. For `Cc1ccc(NC(=O)c2c(NC(=O)C3CCCCC3C(=O)O)sc3c2CCC3)cc1C` (centres unmarked) [Compound 1, 2-[[3-[(3,4-Dimethylphenyl)carbamoyl]-5,6-dihydro-4H-cyclopenta[b]thiophen-2-yl]carbamoyl]cyclohexanecarboxylic acid] the value was 7.78 µM; for `O=C(Nc1ccc(C(F)(F)F)nc1)c1c(NC(=O)C2CCCCC2C(=O)O)sc2c1CCC2` (centres unmarked) [Compound 32, 2-[[3-[[6-(Trifluoromethyl)-3-pyridyl]carbamoyl]-5,6-dihydro-4H-cyclopenta[b]thiophen-2-yl]carbamoyl]cyclohexanecarboxylic acid], 22 µM. Next, `Cc1ccc(NC(=O)c2c(NC(=O)C3CCCCC3C(=O)O)sc3c2CCC3)cc1` (centres unmarked) [Compound 66, 2-[[3-(p-Tolylcarbamoyl)-5,6-dihydro-4H-cyclopenta[b]thiophen-2-yl]carbamoyl]cyclohexanecarboxylic acid]: 11.7 µM. In turn, `O=C(Nc1ccc(Cl)cc1)c1c(NC(=O)C2CCCCC2)sc2c1CCC2` [Compound 52, N-(4-Chlorophenyl)-2-(cyclohexanecarbonylamino)-5,6-dihydro-4H-cyclopenta[b]thiophene-3-carboxamide] gave a half-inhibitory concentration (IC50) of 29.3 µM.
